The record followed here is paper PMC12040169 (PLOS Biology, 2025).

Structures are written as SMILES.

This data set in a line: in vitro. The note with it: human, hela cells, % viability.
A word on the viability: it is a read-out of living cells in per cent, often relative to untreated cells. As for `C[C@@H]1C[C@H](C(F)(F)F)n2nc(C3CCCN3C(=O)C3CC3)cc2N1` (stereo partly drawn) [CBK285432], the viability at 28.5 h, 10 µM was determined as 90.6%.
With `COC(=O)Cn1cc(CN2CC3CCCN3C[C@H]2C)c2ccccc21` (stereo partly drawn) [CBK285436], the viability at 28.5 h, 10 µM amounted to 92.2%.
The result for `Cc1cc(C2CCCCCN2C(=O)c2cccc(F)c2)on1` (stereo not drawn) [CBK285448] reads 96.8%; that for `CC(=O)N1CCC(c2nc(C3CCCC3)no2)C1` (stereo not drawn) [CBK285452], 104%.
For `Cc1cc(C[C@@H]2CCC[C@H]2NCc2c(C)nn(C(C)C)c2C)on1` [CBK285453], the viability at 28.5 h, 10 µM was 98.3%.
Consider `CCCC(=O)N1CCC(c2nc(C3CCCC3)no2)C1` (stereo not drawn) [CBK285457], for which the viability at 28.5 h, 10 µM is 106%.
Then `CCC(=O)N1CCC(c2nc(C3CCCC3)no2)C1` (stereo not drawn) [CBK285458], with 95.3%; and `CC(=O)Nc1ccc(CN[C@@H]2CCC[C@H]2Cc2cc(C)no2)cc1` [CBK285459], with 102%.
With `Cc1cc(C[C@@H]2COC[C@H]2NCc2ccc(C(F)(F)F)cc2)on1` [CBK285463], the viability at 28.5 h, 10 µM amounted to 107%.
Then `COCC(=O)N1c2ccccc2CC[C@@H]1C(=O)OC` [CBK285472], with 103%.
For the compound `COc1ccc(C2CCN(C(=O)C3CCCO3)CC2)cc1` (stereo not drawn) [CBK285473], the viability at 28.5 h, 10 µM was 102%.
In the case of `COC(=O)[C@H]1CCc2ccccc2N1C(=O)C(C)C` [CBK285474], the viability at 28.5 h, 10 µM stood at 100%.
Consider `CCN(CC)C(=O)CN1CCC(c2ccc(F)cc2)CC1` [CBK285475], for which the viability at 28.5 h, 10 µM stood at 108%.
Turning to `COc1ccc(C2(C(=O)N3CCC(c4ccncc4)CC3)CC2)cc1` [CBK285476], the viability at 28.5 h, 10 µM is 111%.
For `CC(C)CC(=O)N1CCC(n2c(=O)oc3ccc(Cl)cc32)CC1` [CBK285477], the viability at 28.5 h, 10 µM worked out at 105%.
Consider `COC(=O)[C@H]1CCc2ccccc2N1C(=O)C1CCC1` [CBK285478], for which the viability at 28.5 h, 10 µM was determined as 100%.
As to `O=C(N1CCC(c2ccncc2)CC1)C1(c2ccccc2)CC1` [CBK285480], the viability at 28.5 h, 10 µM came out at 102%.
In the case of `COc1ccccc1CC(=O)N1CCN(Cc2ccco2)C[C@@H]1C` [CBK285481], the viability at 28.5 h, 10 µM turned out to be 105%.
As to `CC(C(=O)N1CCC(c2ccncc2)CC1)c1ccccc1` (stereo not drawn) [CBK285484], the viability at 28.5 h, 10 µM is 99.1%.
Consider `COc1cccc(CN2CCN(C(=O)Cc3cccs3)[C@@H](C)C2)c1` [CBK285487], for which the viability at 28.5 h, 10 µM was found to be 104%.
Regarding `CCn1cc(C(=O)N2CCN(Cc3ccco3)C[C@@H]2C(C)C)c(C)n1` [CBK285488], the viability at 28.5 h, 10 µM amounted to 110%.
Then `C[C@@H]1CN(Cc2ccco2)CCN1C(=O)c1nccc2ccccc12` [CBK285489], with 99.8%.
Then `CC(C)[C@H]1CN(Cc2ccco2)CCN1C(=O)c1cscn1` [CBK285490], with 99.6%; and `O=C(C1CCCC1)N1C[C@@H]2CCCCN(Cc3cccnc3)[C@@H]2C1` [CBK285492], with 101%.
Then `CC(=O)N1C[C@@H]2CCCCN(CCOc3ccccc3)[C@@H]2C1` [CBK285494], with 107%.
On to `CC(=O)N1C[C@@H]2CCCCN(CCc3ccc(F)cc3)[C@@H]2C1` [CBK285495], for which the viability at 28.5 h, 10 µM is 112%.
As to `O=C(c1ccccc1)N1C[C@@H]2CCCCN(CC3CC3)[C@@H]2C1` [CBK285498], the viability at 28.5 h, 10 µM was 102%.
`O=C(C1CCCC1)N1CCCC1c1nnc(-c2ccsc2)o1` (stereo not drawn) [CBK285506]: the viability at 28.5 h, 10 µM is 102%.
The result for `O=C(Cc1ccsc1)N1C[C@@H]2CCCCN(CC3CC3)[C@@H]2C1` [CBK285507] reads 104%; that for `COC(=O)CN1CCCC[C@H]2CN(C(=O)Cc3ccsc3)C[C@H]21` [CBK285509], 111%; that for `COc1cccc(CN2CCCC[C@H]3CN(C(C)=O)C[C@H]32)c1` [CBK285510], 107%.
Turning to `O=C(c1ccccc1)N1C[C@@H]2CCCCN(Cc3cccnc3)[C@@H]2C1` [CBK285512], the viability at 28.5 h, 10 µM is 98.7%.
On to `CS(=O)(=O)N1C[C@@H]2CCCCN(Cc3cccc(F)c3F)[C@@H]2C1` [CBK285513], for which the viability at 28.5 h, 10 µM is 95.6%.
For `COc1ccccc1CC(=O)N1CCCC1c1nc2ccccc2[nH]1` (stereo not drawn) [CBK285517], the viability at 28.5 h, 10 µM was found to be 94.6%.
Consider `COC1CCCC(C(=O)N2CCC(c3onc4c3CCC4)CC2)C1` (stereo not drawn) [CBK285519], for which the viability at 28.5 h, 10 µM turned out to be 103%.
The result for `CC(C)OC(=O)[C@@H]1CCN(C(=O)CCC2NC(=O)NC2=O)[C@@H]1c1ccc(F)cc1` (stereo partly drawn) [CBK285520] reads 103%; that for `CC(C)CN1CCC2(CC=CCN(Cc3ccc(F)cc3)C2=O)CC1` [CBK285521], 116%.
For the compound `COc1ccc([C@H]2CN(C(=O)c3ccccn3)[C@@H]3CCCN(C(C)=O)[C@H]23)cc1` [CBK285523], the viability at 28.5 h, 10 µM was 91.4%.
Take `CC(C)N1CCC[C@@H]2CN(C(=O)c3cccc(C(F)(F)F)c3)C[C@@H]21` [CBK285525]: the viability at 28.5 h, 10 µM was 96%.
Then `CN1CC[C@H](c2ccccc2)[C@@H]2[C@H]1CCCCN2C(=O)c1ccc(=O)oc1` [CBK285527], with 93.2%; and `O=C(CCC1CCCC1)N1C[C@@H]2CCCCN(CC3CC3)[C@@H]2C1` [CBK285531], with 94%; and `Cc1cccc(Nc2ccc(C3CCCCN3Cc3ccc4nccnc4c3)cn2)n1` (stereo not drawn) [CBK285536], with 76.2%.
On to `COc1ccc(C(NC(=O)Cc2ccc(-n3nnnc3C)cc2)c2ccccc2)cc1` (stereo not drawn) [CBK285537], for which the viability at 28.5 h, 10 µM is 92.8%.
For `CCC(C)NC(=O)C1(Cc2ccc(-c3cc(F)ccc3OC)cc2)CCOCC1` (stereo not drawn) [CBK285539], the viability at 28.5 h, 10 µM was determined as 102%.
`COc1ccc(F)cc1-c1ccc(CC2(C(=O)NCc3cccs3)CCOCC2)cc1` [CBK285540]: the viability at 28.5 h, 10 µM turned out to be 112%.
Then `COc1ccc(F)cc1-c1cccc(CC2(C(=O)NC3CCCCC3)CCOCC2)c1` [CBK285541], with 92.8%.
In the case of `COc1ccc([C@H]2CN(Cc3ccccc3)[C@@H]3CCN(C(=O)c4ccccc4F)C[C@H]23)cc1` [CBK285542], the viability at 28.5 h, 10 µM stood at 91.1%.
Regarding `O=C(c1cccs1)N1C[C@H](c2ccc(F)cc2)[C@H]2CN(Cc3ccccc3)CC[C@H]21` [CBK285544], the viability at 28.5 h, 10 µM amounted to 91.8%.
Then `O=C(c1cccs1)N1C[C@H](c2ccc(F)cc2)[C@H]2CN(Cc3ccc(F)cc3)CC[C@H]21` [CBK285545], with 91.3%; and `Cc1ccccc1CN1CC[C@@H]2[C@H](C1)[C@@H](c1ccc(F)cc1)CN2C(=O)c1cccs1` [CBK285546], with 86.8%.
Turning to `CC(=O)NC(CC(=O)N1CCc2sccc2C1c1ccccc1)c1ccc(F)cc1` (stereo not drawn) [CBK285548], the viability at 28.5 h, 10 µM amounted to 112%.
Take `COc1ccc([C@H]2CN(Cc3ccccc3)[C@@H]3CCN(C(=O)c4ccccc4)C[C@H]23)cc1` [CBK285550]: the viability at 28.5 h, 10 µM is 86.6%.
Then `Cc1nc(C2CCCCN2C(=O)C2CCCCC2)ncc1C(=O)NCc1ccc(F)cc1` (stereo not drawn) [CBK285554], with 86.5%; and `Cc1cc(C)n(CC(=O)Nc2cccc(CCc3ccncc3)c2)c(=O)n1` [CBK285555], with 105%.
For `Cc1nc2ncnn2c(C)c1CCC(=O)Nc1cccc(CCc2ccncc2)c1` [CBK285557], the viability at 28.5 h, 10 µM turned out to be 99.8%.
As to `COc1nn(CC(=O)Nc2cccc(CCc3ccncc3)c2)c(=O)c2ccccc12` [CBK285560], the viability at 28.5 h, 10 µM worked out at 94.5%.
As to `CCn1nc2c(c1C(=O)Nc1cccc(CCc3ccncc3)c1)CCCC2` [CBK285561], the viability at 28.5 h, 10 µM came to 87.5%.
Consider `COc1ccc(F)cc1-c1cccc(CC2(C(=O)NCCc3ccccc3)CCOCC2)c1` [CBK285562], for which the viability at 28.5 h, 10 µM was 84.5%.
On to `Cc1oc(C(=O)N2CCc3sccc3C2c2ccccc2)cc1CN1CCOCC1` (stereo not drawn) [CBK285566], for which the viability at 28.5 h, 10 µM came to 105%.
In the case of `Cc1cc(C)nc(N2CCC(c3cc(CCOc4cccc(C(F)(F)F)c4)[nH]n3)C2)n1` (stereo not drawn) [CBK285568], the viability at 28.5 h, 10 µM came out at 78.7%.
With `O=C(NCc1cccs1)C1(Cc2cccc(-c3ccc(F)c(F)c3)c2)CCOCC1` [CBK285569], the viability at 28.5 h, 10 µM is 93.2%.
Regarding `O=C(NCCc1ccc(Cl)cc1)C1(Cc2ccc(-c3ccncc3)cc2)CCOCC1` [CBK285570], the viability at 28.5 h, 10 µM was determined as 89%.
The result for `CN1C[C@H](C(N)=O)[C@@H](c2ccc(CN(C)C(=O)c3cccc(Oc4ccccc4)c3)cc2)C1` [CBK285572] reads 114%.
For `COc1ccc(C(NC(=O)c2cc(C)oc2CN2CCCC2)c2ccccc2)cc1` (stereo not drawn) [CBK285573], the viability at 28.5 h, 10 µM is 118%.
The result for `Cc1cc(C)nc(N2CCC(C3CC=CCN(CCc4ccccc4)C3=O)CC2)n1` (stereo not drawn) [CBK285575] reads 105%; that for `O=C(c1cc2c(s1)CCCC2)N1CCCCC1c1nnc(-c2nccc3ccccc23)o1` (stereo not drawn) [CBK285577], 61%; that for `COc1ccc(C(NC(=O)c2ccc(Cn3nc(C)cc3C)o2)c2ccccc2)cc1` (stereo not drawn) [CBK285578], 87.8%.
`O=C(NC1Cc2ccccc2C1)c1cccc(-c2ccc(CC3CCCNC3=O)cc2)c1` (stereo not drawn) [CBK285579]: the viability at 28.5 h, 10 µM turned out to be 94.9%.
Then `COc1ccc([C@H]2CN(C(=O)c3ccccc3)[C@@H]3CCN(Cc4cccc(F)c4)C[C@H]23)cc1` [CBK285584], with 98.9%.
Take `COc1ccc(-c2ccc(OC)cc2C(=O)Nc2ccc(Cn3cncn3)cc2)cc1` [CBK285588]: the viability at 28.5 h, 10 µM is 109%.
Take `O=C(NCC1CCCCC1)C1(Cc2ccc(-c3cccnc3)cc2)CCOCC1` [CBK285591]: the viability at 28.5 h, 10 µM was found to be 92.6%.
As for `CNC(=O)C1(Cc2ccccc2-c2ccccc2)CCN(C(=O)Cc2cccc(C)c2)CC1` [CBK285594], the viability at 28.5 h, 10 µM was 104%.
On to `CN(C(=O)c1c[nH]nc1-c1ccc(CNC(=O)c2cccc(Cl)c2)cc1)c1ccccc1` [CBK285597], for which the viability at 28.5 h, 10 µM was 79.9%.
Turning to `Cc1ccc(C(=O)NCc2ccc(-c3n[nH]cc3C(=O)N(C)Cc3ccccc3)cc2)cc1` [CBK285598], the viability at 28.5 h, 10 µM is 100%.
Turning to `O=C(NCC1CCCCC1)C1(Cc2cccc(-c3cccnc3)c2)CCOCC1` [CBK285607], the viability at 28.5 h, 10 µM worked out at 97.5%.
